The nature of data set [1]: method code SF-HPLC, from DOI: 10.1021/je9900629.
A short description of data set [2]: method code SF-AS, from DOI: 10.1021/je9900629.

In turn, `OC1CC2CCC1C2` (stereo unspecified) displayed a logP in data set [1] of 1.45.
In data set [1], `OC(C1CC1)C1CC1` had a logP of 1.07.
On the same count and under the same terms, the figure for `OC1C2CC3C1C3C2O` (stereo unspecified) is -0.42.
Molecule `BrC1CC2CCC1C2` (stereo unspecified) returned a logP of 3.54.
In turn, `O=C1C2CC3C(C2)C13` came in with a logP in data set [1] of 0.81.
As for `ClC1CC2CCC1C2` (stereo unspecified), the log partition coefficient (logP) in data set [1] stood at 3.35.
Same read-out and setting: to `C1CC2CC1C1OC21` (stereo unspecified) belongs 1.58; to `OC1C2CCC(C2)C1O` (stereo unspecified), 0.4.
In data set [2], `OC1CC2C=CC1C2` (stereo unspecified) came in with a logP of 1.24.
With `OCC1CC2CCC1C2` (stereo unspecified), the logP in data set [1] came to 1.99.
Same read-out and setting: to `OC1CC2CCC1C2O` (stereo unspecified) belongs 0.4.
`C1=CC2CCC1C2` showed a logP in data set [2] of 3.24.
`C1C2C3C2C2C1C32` (stereo unspecified) yielded a logP in data set [1] of 2.9.
`BrC12CC3CC1C2C3` came in with a logP of 3.11.
As for `C1CC2CCC1C2`, the logP in data set [1] was 3.78.
With `C1=CC2C=CC1C2`, the logP in data set [2] amounted to 2.67.

What is called logP is the decadic logarithm of the partition coefficient of the neutral form, usually between octanol and water.

Source of the values: the SangsterLogP compilation.
